Measured values as given in patent US7772383B2, “Chemical PCR: Compositions for enhancing polynucleotide amplification reactions” (The Trustees of Princeton University, priority 2002, dated 2010).
Read-outs that look alike come from different tables or passages of the source.

How the values were obtained:
[1] = system: bovine brain glycolipid transfer protein (GTP) cDNA (660 bp); experiment: PCR amplification of GTP cDNA with diol additives, standard cycling; assay type: biochemical; conditions: for amplification of GTP over annealing temperature gradients (in words): 95° C. denaturing temperature
Method: (§1) Amplification reactions were carried out under the following general conditions. Those skilled in the art will appreciate, however, that to the extent that the conditions (set forth in this application) required for specific experiments described in this example were inconsistent with the following general conditions, limited exceptions to the following general conditions were made The general conditions were as follows: 10 Mm Tris-HCl (Ph 8.8), 50 Mm KCl, 1.5 Mm MgCl2, 0.01% (w/v) gelatin, 0.2 Um primers, 0.06 ng/ul template, 0.2 Mm each Dntp, 0.04 U/ul Taq polymerase. The templates used were bovine brain N-WASP cDNA (1518 bp), a 996 bp segment of human myeloid leukocyte c-jun cDNA, a 511 bp segment of human prostate-specific membrane antigen (PSM) cDNA, and bovine brain glycolipid transfer protein (GTP) cDNA (660 bp). cDNA synthesis was carried out using the FIRST-STRAND® RT-PCR kit from Stratagene on the respective mRNAs purchased from Clontech. All amplification reactions for gene were carried out using a single master batch of cDNA. Taq polymerase and dNTPs were obtained from Stratagene. Primers were obtained from Genosys. Primer melting temperatures (Tms) were calculated using the Genosys oligo calculator program. The sequences of the primers were as follows.
(§2) Polymerase chain reactions for the N-WASP gene were conducted on a ROBOCYCLER® Gradient 40 thermal cycler from Stratagene using 100 ul solutions in 600 ul thin-walled tubes. For expediency, amplification of c-jun, PSM and GTP was carried out in a ROBOCYCLER® Gradient 96 thermal cycler from Stratagene using 50 ul solutions in 200 ul thin-walled tubes. Prior to Taq polymerase addition, a hotstart protocol was carried out that consisted of an initial cycle of 95° C. for 5 minutes (11) to ensure complete first-strand separation, followed by a cycle of 54° C. for 5 minutes. Amplifications were run for 30 cycles. […] Extension was done at 72° C. for periods depending on target length: 2 minutes for N-WASP, 1.5 minutes for c-jun and GTP, and 1 minute for PSM. Annealings were carried out either at fixed concentrations of additives using temperature gradients of 38-56° C. for N-WASP and 44-58° C. for the other targets, or at varying concentrations of additives using fixed temperatures of 41° C. for N-WASP, 50° C. for c-jun and PSM, and 54° C. for GTP.
(§3) Amplification products were analyzed by agarose gel electrophoresis on 0.8% agarose gels in which 20 ul reaction products were loaded with 4 ul loading buffer. Gels were stained with ethidium bromide, visualized on a UV transilluminator (Fisher), and documented by photography. Densitometric quantitation of amplification products was carried out using IMAGE SCANNER® and IMAGE MASTER® software from Amersham Pharmacia. Background correction was done using the software's rolling disc method.
Investigations into the PCR enhancing capabilities of diol cosolvents were carried out using GTP as the primary template. […] The standard protocol for annealing temperature and concentration gradient screening was again followed. […] These cosolvents were thus omitted from further studies. The optimal annealing temperatures for the remaining compounds were: ethylene glycol, 1,2-propanediol, 1,3-propanediol and cis-1,2-cyclopentanediol—58° C.; 1,2-butanediol—54° C.; 1,3-butanediol and 1,4-butanediol—[…]; 2,4-pentanediol, 1,5-pentanediol, 1,6-hexanediol and MPD—56° C.

[2] = system: 996 bp segment of human myeloid leukocyte c-jun cDNA; experiment: PCR amplification of c-jun cDNA with diol additives, standard cycling; assay type: biochemical
Method: as §1, §2, §3
(§4) With PSM, 1,2-propanediol, 1,2-butanediol, 1,3-butanediol, 1,4-butanediol and glycerol were tested; with c-jun, ethylene glycol and 1,3-propanediol were also tested in addition to these compounds. […] The following additive concentrations were tested using these annealing temperatures: 1,2-propanediol—0.5, 0.8, 1.1, 1.4, 1.7 and 2.0M; 1,2-butanediol—0.1, 0.3, 0.5, 0.6, 0.7 and 0.8M; 1,3-butanediol—0.1, 0.3, 0.5, 0.6, 0.9, 1.1, 1.2M; 1,4-butanediol—0.1 to 1.1M in 0.2M intervals; 1,5-pentanediol—0.1-0.6M in 0.1M intervals; glycerol—0.5 to 1.9M in 0.2M intervals, and 2.2M.

[3] = system: 511 bp segment of human prostate-specific membrane antigen (PSM) cDNA; experiment: PCR amplification of PSM cDNA with diol additives, standard cycling; assay type: biochemical; conditions: for Specificity / Effective range / Potency: PSM; for Specificity: best specificity (densitometric volume of target as percent of total volume) over the effective range; for Effective range: concentration interval over which densitometric volume of target is at least 50% of maximum; for Potency: normalized maximum densitometric volume of target band: 1,3-Butanediol = 1
Method: as §1, §2, §3, §4

[4] = system: 1026 by segment of the Thy-1 gene from rat genomic DNA; assay type: biochemical
[5] = target: T1, Taq polymerase (Thermus aquaticus, UniProt P19821); experiment: Taq polymerase activity assays at low temperature in the presence of additives; assay type: biochemical; conditions: 1.0M 1,5-pentanediol, 0.7M 1,6-hexanediol; for Activity of Taq polymerase: normalized to activity of control at 62° C.; for Activation: change in Taq activity versus control
T1 construct: purchased Stratagene
Method: The measured polymerase activity, then, is in fact a function of two variables—temperature and additive concentration. The plot of measured activity versus temperature and additive concentration is a two-dimensional surface. While a truly comprehensive search for maximal polymerase activity would entail screening this entire surface, the number of experiments required to do so would of course be impractical. Therefore, polymerase activity was measured first as a function of temperature in the absence of additives and at one given, high additive concentration. The temperature that yielded the maximum activity of the polymerase at that concentration was then targeted for concentration gradient studies.
First, polymerase activity assays were carried out in the absence of additives and in the presence of 1.0M 1,5-pentanediol and 0.7M 1,6-hexanediol at temperatures between 46 and 62° C. Next, polymerase activity was studied at 53° C. in the presence of concentration gradients of 1,5-pentanediol, 2-pyrrolidone, sulfolane and tetramethylene sulfoxide. The concentrations tested were: 1,5-pentanediol: 1.0, 1.3, 1.5, 2.25, 3.0 and 3.5M; 2-pyrrolidone: 1.25, 1.5, 2.0 and 3.9M; sulfolane: 1.0, 1.5, 2.0 and 2.75M, tetramethylene sulfoxide: 1.0, 1.5, 2.0 and 3.0M.

[6] = system: 50% GC DNA; experiment: Predicted cosolvent-induced Tm depression of DNA; assay type: physicochemical; conditions: 1.0M 1,5-pentanediol, 0.7M 1,6-hexanediol, linearity not verified
Method: The compounds utilized in the first phase (testing using 1.0M 1,5-pentanediol and 0.7M 1,6-hexanediol at temperatures between 46 and 62° C.) were chosen on the basis of the following rationale. The optimal additive for a low temperature PCR reaction is one that lowers the melting temperature of DNA as much as possible while minimally compromising polymerase activity. 1,5-Pentanediol and 1,6-hexanediol are both powerful DNA melting agents. In addition, it was found in the 62° C. activity studies that the rate of activity decline with concentration of 1,5-pentanediol was roughly equivalent to that of 1,2-butanediol, despite the fact that the former is a much stronger DNA denaturant. 1.0M 1,5-pentanediol and 0.7M 1,6-hexanediol are predicted to lower the Tm of a 50% GC DNA by approximately the same amount: 19° C.

[7] = when functional; general statement on prior use; cited from earlier work
[8] = system: GC-rich segment of crab satellite DNA; conditions: literature (Varadaraj and Skinner, 1994); cited from earlier work
[9] = GTP, 95° C. denaturing, 72° C. extension, normalized maximum densitometric volume of target band: 1,5-Pentanediol = 1
[10] = GTP, concentration interval over which densitometric volume of target band is at least 50% of maximum volume
[11] = c-jun, concentration interval over which densitometric volume of target band is at least 50% of maximum volume
[12] = c-jun, normalized maximum densitometric volume of target band: 1,5-Pentanediol = 1

T1 sequence (P19821 whole entry): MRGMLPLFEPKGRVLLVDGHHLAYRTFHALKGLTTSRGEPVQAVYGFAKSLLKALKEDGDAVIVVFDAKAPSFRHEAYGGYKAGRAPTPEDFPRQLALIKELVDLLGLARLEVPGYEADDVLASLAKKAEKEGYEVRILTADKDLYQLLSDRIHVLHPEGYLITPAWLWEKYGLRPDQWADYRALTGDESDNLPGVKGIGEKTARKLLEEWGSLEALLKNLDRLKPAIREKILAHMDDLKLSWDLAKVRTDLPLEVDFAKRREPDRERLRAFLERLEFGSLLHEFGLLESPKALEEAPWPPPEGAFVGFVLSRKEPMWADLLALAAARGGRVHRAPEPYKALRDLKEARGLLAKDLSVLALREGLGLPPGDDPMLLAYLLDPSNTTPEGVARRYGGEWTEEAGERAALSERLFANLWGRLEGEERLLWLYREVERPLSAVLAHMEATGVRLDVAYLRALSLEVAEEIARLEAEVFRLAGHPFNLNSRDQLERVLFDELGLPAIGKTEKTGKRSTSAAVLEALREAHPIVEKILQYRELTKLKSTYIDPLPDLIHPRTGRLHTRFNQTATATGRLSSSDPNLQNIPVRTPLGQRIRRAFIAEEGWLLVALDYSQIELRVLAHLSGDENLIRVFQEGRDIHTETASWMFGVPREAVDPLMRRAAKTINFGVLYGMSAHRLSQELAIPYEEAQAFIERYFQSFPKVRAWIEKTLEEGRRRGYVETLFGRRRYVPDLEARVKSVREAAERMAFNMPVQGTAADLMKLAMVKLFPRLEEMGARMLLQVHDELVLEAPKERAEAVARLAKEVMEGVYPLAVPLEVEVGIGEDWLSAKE

Row | SMILES | Potency [1, 9] | Effective range [1, 10] [M] | Effective range [2, 11] [M] | Potency [2, 12] | Specificity [3] [%] | Effective range [3] [M] | Potency [3] | further results
1 | O[C@@H]1CCC[C@H]1O (relative stereo) [trans-1,2-Cyclopentanediol] |  |  |  |  |  |  |  | amplification of GTP over annealing temperature gradients (in words) ([1]; GTP): inhibitory at all concentrations
2 | CCCCC(O)CO (stereo not drawn) [1,2-Hexanediol] |  |  |  |  |  |  |  | amplification of GTP over annealing temperature gradients (in words) ([1]; GTP): detectable amplification only in very narrow concentration ranges
3 | CCCC(O)CO (stereo not drawn) [1,2-Pentanediol] |  |  |  |  |  |  |  | amplification of GTP over annealing temperature gradients (in words) ([1]; GTP): detectable amplification only in very narrow concentration ranges
4 | CC(O)CO (stereo not drawn) [1,2-Propanediol] | 0.64 | 0.52 to 1.79 | 0.43 to 1.87 | 0.60 | 89 | 0.65 to 1.40 | 0.75 | 
5 | CC(O)CCO (stereo not drawn) [1,3-Butanediol] | 0.85 | 0.29 to 0.96 | 0.40 to 1.12 | 0.77 | 94 | 0.55 to 1.03 | 1.00 | PSM Potency ([3]; comparative standard 95/50/72° C., 0.8 M, best result under conventional conditions, normalization reference): 1.00; PSM Specificity ([3]; comparative standard 95/50/72° C., 0.8 M, densitometric volume of target band as percent of total volume): 94%; amplification yield of Thy-1 genomic DNA (in words) [4]: particularly dramatic improvement
6 | OCCCO [1,3-Propanediol] | 0.39 | 0.31 to 1.18 | 0.59 to 0.96 | 0.25 |  |  |  | 
7 | OCCCCO [1,4-Butanediol] |  |  |  |  | 92 | 0.38 to 0.80 | 0.65 | Effective range [1]: 0.16 to 0.77 M; Potency [1]: 0.87; Effective range [2]: 0.35 to 0.91 M; Potency [2]: 0.82
8 | OCCCCCCO [1,6-Hexanediol] | 0.80 | 0.13 to 0.29 |  |  |  |  |  | Activity of Taq polymerase ([5]; 47° C.): 0.24; Activation ([5]; 47° C.): −27%; Activity of Taq polymerase ([5]; 48° C.): 0.36; Activation ([5]; 48° C.): −12%; Activity of Taq polymerase ([5]; 49° C.): 0.57; Activation ([5]; 49° C.): +16%; Activity of Taq polymerase ([5]; 50° C.): 0.60; Activation ([5]; 50° C.): +20%; Activity of Taq polymerase ([5]; 51° C.): 0.60; Activation ([5]; 51° C.): +13%; Activity of Taq polymerase ([5]; 52° C.): 0.64; Activation ([5]; 52° C.): +25%; Activity of Taq polymerase ([5]; 53° C.): 0.64; Activation ([5]; 53° C.): +12%; Activity of Taq polymerase ([5]; 54° C.): 0.60; Activation ([5]; 54° C.): −2%; Activity of Taq polymerase ([5]; 55° C.): 0.51; Activation ([5]; 55° C.): −27%; lowering of the Tm of a 50% GC DNA [6]: ~19 °C
9 | CC(O)CC(C)O (stereo not drawn) [2,4-Pentanediol] | 0.61 | 0.25 to 0.70 |  |  |  |  |  | 
10 | CC(O)CC(C)(C)O (stereo not drawn) [2-Methyl-2,4-Pentanediol] | 0.45 | 0.12 to 0.33 |  |  |  |  |  | 
11 | OCCO [Ethylene glycol] |  |  |  |  |  |  |  | Effective range [1]: 1.55 to 3.55 M; Potency [1]: 0.62; Effective range [2]: 0.71 to 3.10 M; Potency [2]: 0.58; amplification yield of Thy-1 genomic DNA (in words) [4]: improve amplification yield
12 | OCC(O)CO [Glycerol, reference compound] | 0.28 | 0.26 to 1.17 | 0.50 to 1.25 | 0.13 | 83 | 1.10 to 1.63 | 0.22 | concentrations at which a positive effect on PCR is usually found [7]: 5-15%; enhancement of crab satellite DNA amplification relative to that provided by DMSO [8]: less than 25%
13 | O[C@@H]1CCC[C@@H]1O [cis-1,2-Cyclopentanediol] | 0.91 | 0.13 to 0.35 |  |  |  |  |  | 
